{"source": "paper PMC4810358", "about": "“Applicability of the Rayleigh equation for enantioselective metabolism of chiral xenobiotics by microsomes, hepatocytes and in-vivo retention in rabbit tissues” (Scientific Reports, 2016)", "test": "in vivo stereoselective metabolism of doxazosin, plasma concentration-time profiles (Kong et al.)", "details": "male Sprague–Dawley rats, from Fig. 3 in ref 25, R^2 = 0.92", "description": "For example, Sun et al.[26] have reviewed the enantioselective behavior of the fungicide myclobutanil enantiomers in variant rabbit tissues following intravenous administration of the racemic fungicide. Using the plasma concentration-time curves of the two enantiomers (presented in Fig. 1A in ref. [26]) we obtained the enantiomeric enrichment factor of −28 ± 5 (R^2 = 0.97). Analysis of the distribution of myclobutanil in various tissues, presented in Fig. 3 in ref. [26], obtained the enantiomeric enrichment factors of −33 ± 16 (R^2 = 0.92) for the liver, −20 ± 6 (R^2 = 0.97) for the brain, −32 ± 16 (R^2 = 0.89) for the kidney and −21 ± 6 (R^2 = 0.97) for the muscle. […] This quantitative ranking is obscured by the large number of time trace data points in the original presentation. Another example can be presented by the study of Kong et al.[25] reporting on the stereoselective metabolism of the alpha blocker doxazosin (DOX) in vivo in male Sprague–Dawley rats.", "data": [{"smiles": "COc1cc2nc(N3CCN(C(=O)C4COc5ccccc5O4)CC3)nc(N)c2cc1OC", "note": "(stereo not shown) [DOX, doxazosin]", "values": [{"measurement": "enantiomeric enrichment factor", "value": "−45 ± 13"}]}]}
